US6335339B1, “Triazine antiviral compounds” (Scriptgen Pharmaceuticals, Inc., priority 1998, dated 2002)

Test system: 2.2.15 cells
Experiment: neutral red dye uptake cytotoxicity
Type: cell-based
Conditions: 9 days treatment, read-out: 50% Cell Death CC50
Summary of the method: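 Confluent 2.2.15 cultures, same conditions as antiviral assay, treated daily for 9 days with 4 concentrations (3.3-fold dilutions), triplicate wells. 24 hours after the final dose, cells stained 30 minutes with 0.01% neutral red, dye extracted and A510 read; values as % of untreated cultures, CC50 as 50% cell death.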

| Compound | CC50 |
| --- | --- |
| C(=NNc1nc(Nc2ccccc2)nc(N2CCCCC2)n1)c1ccccc1 [Compound 3] | > 100 µM |
| Cc1[nH]c2ccccc2c1C=NNc1nc(Nc2ccccc2)nc(N2CCOCC2)n1 [Compound 4] | 3.7 µM |
| FC(F)(F)c1cccc(Nc2nc(Nc3cccc(Br)c3)nc(N3CCOCC3)n2)c1 [Compound 38] | 125 µM |
| CCCCN(CCCC)c1nc(NN=Cc2c[nH]c3ccccc23)nc(Nc2ccc([N+](=O)[O-])cc2)n1 [Compound 39] | 5.3 µM |
| Cc1ccc(Nc2nc(NN=Cc3ccc(Cl)c(Cl)c3)nc(Nc3ccccc3)n2)c(C)c1 [Compound 40] | 136 µM |
| O=[N+]([O-])c1ccc(Nc2nc(N/N=C/c3cccc(Cl)c3)nc(N3CCCCC3)n2)cc1 [Compound 41] | > 300 µM |
| Cc1ccc(Nc2nc(NN=Cc3ccc(Cl)cc3)nc(Nc3ccccc3)n2)c(C)c1 [Compound 42] | 237 µM |
| Brc1cc2c(cc1C=NNc1nc(NCc3ccccc3)nc(Nc3ccccc3)n1)OCO2 [Compound 43] | 87 µM |
| COc1ccc(C=NNc2nc(Nc3ccc([N+](=O)[O-])cc3)nc(N3CCCCC3)n2)cc1 [Compound 44] | 285 µM |
| O=[N+]([O-])c1ccc(C=NNc2nc(Nc3ccccc3)nc(NC3CCCCC3)n2)cc1 [Compound 46] | > 100 µM |
| Cc1ccc(Nc2nc(NN=Cc3cccc(Br)c3)nc(Nc3ccccc3)n2)c(C)c1 [Compound 49] | 140 µM |
| Cc1[nH]c2ccccc2c1C=NNc1nc(NCc2ccccc2)nc(Nc2ccccc2)n1 [Compound 50] | 30 µM |
| Cc1ccc(Nc2nc(NN=Cc3ccc4c(c3)OCO4)nc(Nc3ccccc3)n2)c(C)c1 [Compound 51] | 130 µM |
| O=[N+]([O-])c1cc(C=NNc2nc(Nc3ccccc3)nc(N3CCOCC3)n2)ccc1Cl [Compound 52] | 11 µM |
| Oc1ccc(Nc2nc(Nc3cccc(C(F)(F)F)c3)nc(N3CCOCC3)n2)cc1 [Compound 53] | 72 µM |
| CC(C)c1ccc(C=NNc2nc(Nc3ccc([N+](=O)[O-])cc3)nc(N3CCCCCC3)n2)cc1 [Compound 56] | 63 µM |
| COc1ccc(C=NNc2nc(Nc3ccccc3)nc(Nc3ccc(C)cc3C)n2)c(OC)c1 [Compound 61] | 1.3 µM |
| CC(C)c1ccc(C=NNc2nc(Nc3ccc([N+](=O)[O-])cc3)nc(N3CCCCC3)n2)cc1 [Compound 62] | > 100 µM |
| CCN(CC)c1nc(N/N=C/c2ccc([N+](=O)[O-])cc2)nc(Nc2cc(C)ccc2C)n1 [Compound 63] | > 100 µM |
| CNc1nc(NN=Cc2ccccc2[N+](=O)[O-])nc(Nc2ccccc2)n1 [Compound 65] | 17 µM |
| CC(C)(C)Nc1nc(NCc2ccccc2)nc(NN=Cc2ccc3c(c2)OCO3)n1 [Compound 67] | > 100 µM |
| CCN(CC)c1nc(NN=Cc2ccc(F)cc2)nc(Nc2ccc([N+](=O)[O-])cc2)n1 [Compound 68] | > 300 µM |
| CCCCN(CCCC)c1nc(NN=C(C)c2ccccc2)nc(Nc2ccc([N+](=O)[O-])cc2)n1 [Compound 74] | > 100 µM |
| CCN(CC)c1nc(NN=Cc2cc([N+](=O)[O-])ccc2OC)nc(Nc2cc(C)ccc2C)n1 [Compound 85] | 209 µM |
| Cc1[nH]c2ccccc2c1C=NNc1nc(Nc2ccccc2)nc(N2CCCCC2)n1 [Compound 88] | > 100 µM |
| C(=Cc1ccccc1)C=NNc1nc(NCc2ccccc2)nc(Nc2ccccc2)n1 [Compound 91] | > 300 µM |
| COc1ccccc1C=NNc1nc(Nc2ccc([N+](=O)[O-])cc2)nc(Nc2ccc(C)c(C)c2)n1 [Compound 94] | > 300 µM |
